From the supplement of paper PMC10307832

Tests used:
Test in all cases: relative viability (nuclei count vs DMSO), 5 days (fraction); higher = more cells survive
[1] = compound: CCCS(=O)(=O)Nc1ccc(F)c(C(=O)c2c[nH]c3ncc(-c4ccc(Cl)cc4)cc23)c1F [Vemurafenib] + CC(=O)c1c(C)c2cnc(Nc3ccc(N4CCNCC4)cn3)nc2n(C2CCCC2)c1=O [Palbociclib] (partner 0.5 µM)
How it was run: (§1)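 Five library-drug doses in √10 steps were combined with a fixed anchor-drug dose, or a single drug was given alone, by pin tool to lung cancer cell lines in 1536-well plates the day after seeding. Nuclei were stained and counted after 5 days. Relative viability is the nuclei count in treated wells over that in vehicle wells, taken as the median of duplicate plates.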

Alpelisib + Pictilisib = compound: Cc1nc(NC(=O)N2CCC[C@H]2C(N)=O)sc1-c1ccnc(C(C)(C)C(F)(F)F)c1 [Alpelisib] + CS(=O)(=O)N1CCN(Cc2cc3nc(-c4cccc5[nH]ncc45)nc(N4CCOCC4)c3s2)CC1 [Pictilisib] (partner 1 µM)
How it was run: as §1

Alpelisib + Linsitinib = compound: Cc1nc(NC(=O)N2CCC[C@H]2C(N)=O)sc1-c1ccnc(C(C)(C)C(F)(F)F)c1 [Alpelisib] + C[C@]1(O)C[C@@H](c2nc(-c3ccc4ccc(-c5ccccc5)nc4c3)c3c(N)nccn32)C1 [Linsitinib] (partner 1 µM)
How it was run: as §1

Alpelisib + Dasatinib = compound: Cc1nc(NC(=O)N2CCC[C@H]2C(N)=O)sc1-c1ccnc(C(C)(C)C(F)(F)F)c1 [Alpelisib] + Cc1nc(Nc2ncc(C(=O)Nc3c(C)cccc3Cl)s2)cc(N2CCN(CCO)CC2)n1 [Dasatinib] (partner 0.075 µM)
How it was run: as §1

| Cell Line | relative viability ([1]; first compound 0.03162 µM) | relative viability ([1]; first compound 0.1 µM) | relative viability ([1]; first compound 0.3162 µM) | relative viability ([1]; first compound 1 µM) | relative viability (Alpelisib + Pictilisib; first compound 0.04 µM) | relative viability (Alpelisib + Pictilisib; first compound 0.1265 µM) | relative viability (Alpelisib + Pictilisib; first compound 0.4 µM) | relative viability (Alpelisib + Pictilisib; first compound 1.265 µM) | relative viability (Alpelisib + Pictilisib; first compound 4 µM) | relative viability (Alpelisib + Linsitinib; first compound 0.04 µM) | relative viability (Alpelisib + Linsitinib; first compound 0.1265 µM) | relative viability (Alpelisib + Linsitinib; first compound 0.4 µM) | relative viability (Alpelisib + Linsitinib; first compound 1.265 µM) | relative viability (Alpelisib + Linsitinib; first compound 4 µM) | relative viability (Alpelisib + Dasatinib; first compound 0.04 µM) | relative viability (Alpelisib + Dasatinib; first compound 0.1265 µM) | relative viability (Alpelisib + Dasatinib; first compound 0.4 µM) | relative viability (Alpelisib + Dasatinib; first compound 1.265 µM) | relative viability (Alpelisib + Dasatinib; first compound 4 µM) |
| --- | --- | --- | --- | --- | --- | --- | --- | --- | --- | --- | --- | --- | --- | --- | --- | --- | --- | --- | --- |
| 201T | 0.37 | 0.309 | 0.365 | 0.402 | 0.655 | 0.725 | 0.637 | 0.642 | 0.62 | 0.93 | 0.936 | 0.989 | 0.806 | 0.917 | 0.561 | 0.487 | 0.541 | 0.434 | 0.359 |
| A549 |  |  |  |  | 0.464 | 0.504 | 0.529 | 0.414 | 0.338 | 0.647 |  | 0.577 | 0.5 | 0.445 |  |  |  |  |  |
| A-427 | 0.525 | 0.481 |  | 0.553 | 0.694 | 0.641 | 0.741 | 0.675 | 0.718 | 1.11 | 1.14 | 1.22 | 1.01 | 1.09 | 0.618 | 0.579 | 0.704 | 0.559 | 0.638 |
| ABC-1 | 0.744 | 0.57 | 0.767 | 0.545 | 0.721 | 0.775 | 1.05 | 0.627 | 0.477 | 0.716 | 0.695 | 0.86 | 0.847 | 0.709 | 0.637 | 0.495 | 0.823 | 0.484 | 0.386 |
| BEN | 0.489 | 0.492 | 0.421 | 0.491 | 0.562 | 0.523 | 0.705 | 0.579 | 0.578 | 0.859 | 0.857 | 1.14 | 0.828 | 0.959 | 0.318 | 0.23 | 0.38 | 0.333 | 0.29 |
| CAL-12T | 0.408 | 0.251 | 0.444 | 0.439 | 0.388 |  | 0.65 |  | 0.329 | 0.801 | 0.67 | 0.814 | 0.784 | 0.76 | 0.34 | 0.275 | 0.483 | 0.27 | 0.232 |
| COR-L23 | 0.325 | 0.257 | 0.178 | 0.265 | 0.744 | 0.79 | 0.865 | 0.594 | 0.636 | 0.836 | 0.889 | 0.856 | 0.69 | 0.592 | 0.436 | 0.392 | 0.535 | 0.278 | 0.292 |
| COR-L 105 | 0.405 |  | 0.328 | 0.403 | 0.39 | 0.352 | 0.435 | 0.378 | 0.341 | 1.04 | 0.874 | 0.976 | 0.902 | 0.841 | 0.301 | 0.444 | 0.346 | 0.273 | 0.26 |
| Calu-6 |  |  |  |  | 0.86 | 0.945 | 1.09 | 0.819 | 0.841 | 0.906 | 0.978 | 1.03 | 0.806 | 0.912 |  |  |  |  |  |
| ChaGo-K-1 | 0.941 | 0.884 | 0.878 | 0.913 | 0.714 |  | 0.883 | 0.625 | 0.492 |  |  |  |  |  | 0.546 | 0.592 | 0.547 | 0.487 | 0.452 |
| EBC-1 |  |  |  |  | 0.417 | 0.345 | 0.412 | 0.298 | 0.349 | 0.81 | 0.822 | 1.02 | 0.825 | 0.793 |  |  |  |  |  |
| EKVX | 0.41 |  | 0.367 | 0.422 | 0.441 | 0.419 | 0.419 | 0.466 | 0.428 | 0.923 | 0.941 | 1.11 | 0.901 | 0.821 | 0.556 | 0.572 | 0.544 | 0.407 | 0.266 |
| EMC-BAC-2 | 0.491 | 0.416 | 0.407 | 0.468 | 0.512 | 0.516 | 0.62 | 0.528 | 0.479 | 0.773 | 0.811 | 0.79 | 0.657 | 0.678 | 0.31 | 0.291 | 0.28 | 0.228 | 0.208 |
| EPLC-272H | 0.34 | 0.3 | 0.413 | 0.353 | 0.338 | 0.282 | 0.298 | 0.336 | 0.262 | 1.1 | 0.977 | 1.34 | 0.937 | 0.893 | 0.313 | 0.281 | 0.219 | 0.201 | 0.202 |
| H3255 | 0.318 |  | 0.301 | 0.307 | 0.409 | 0.516 | 0.533 | 0.356 | 0.411 | 0.979 | 1.01 | 1.07 | 0.715 | 0.794 | 0.403 | 0.345 | 0.363 | 0.315 | 0.256 |
| HARA | 0.26 | 0.17 | 0.304 | 0.318 | 0.3 | 0.488 | 0.459 | 0.326 | 0.244 | 0.885 | 0.947 | 1.08 | 0.719 | 0.358 | 0.291 | 0.281 | 0.215 | 0.174 | 0.155 |
| HCC-15 | 0.717 | 0.689 | 0.673 | 0.775 | 0.721 | 0.673 | 0.822 | 0.716 | 0.63 | 0.892 | 0.873 | 0.878 | 0.863 | 0.767 | 0.559 | 0.587 | 0.56 | 0.379 | 0.31 |
| HCC-44 | 0.957 | 0.887 | 0.957 | 0.926 | 0.669 | 0.654 | 0.822 | 0.491 | 0.441 | 0.707 | 0.7 | 0.738 | 0.582 | 0.543 |  |  |  |  |  |
| HCC-78 | 0.495 | 0.464 | 0.473 | 0.537 | 0.21 | 0.187 | 0.218 | 0.222 | 0.228 | 0.448 | 0.477 | 0.601 | 0.42 | 0.345 | 0.367 | 0.326 | 0.357 | 0.366 | 0.314 |
